Experimental data published in ChEMBL document CHEMBL4038272, “Synthesis and biological evaluation of novel podophyllotoxin-NSAIDs conjugates as multifunctional anti-MDR agents against resistant human hepatocellular carcinoma Bel-7402/5-FU cells” (Eur J Med Chem, 2017).
Activity calls are given as the source filed them. No cut-off for these calls is given here.

Key:
Bel7402/5-FU [1] = experiment: Effect on CDK1 expression in human Bel7402/5-FU cells assessed as ratio of CDK1 to beta-actin level at 0.05 uM after 48 hrs by Western blot analysis (reference value: 0.33); type: functional
Bel7402/5-FU [2] = experiment: Induction of apoptosis in human Bel7402/5-FU cells assessed as morphological changes at 0.05 uM after 24 hrs by Hoechst 33342 staining based fluorescent microscopic method; type: functional, cell-based
Bel7402/5-FU [3] = experiment: Cell cycle arrest in human Bel7402/5-FU cells assessed as accumulation at G1 phase at 0.05 uM after 48 hrs by propidium iodide staining based flow cytometry (reference value: 52.21%); type: functional
Bel7402/5-FU [4] = experiment: Cell cycle arrest in human Bel7402/5-FU cells assessed as accumulation at S phase at 0.05 uM after 48 hrs by propidium iodide staining based flow cytometry (reference value: 12.62%); type: functional
Bel7402/5-FU [5] = experiment: Induction of apoptosis in human Bel7402/5-FU cells at 0.05 uM after 24 hrs by Hoechst 33342 staining based fluorescent microscopic method; type: functional, cell-based
Bel7402/5-FU [6] = experiment: Effect on E-cadherin expression in human Bel7402/5-FU cells assessed as ratio of E-cadherin to beta-actin level at 0.05 uM after 48 hrs by Western blot analysis (reference value: 0.2); type: functional
Bel7402/5-FU [7] = experiment: Induction of apoptosis in human Bel7402/5-FU cells assessed as condensed nuclei at 0.05 uM after 24 hrs by Hoechst 33342 staining based fluorescent microscopic method; type: functional, cell-based
L02 = experiment: Antiproliferative activity against human LO2 cells after 72 hrs by CCK-8 assay; type: cell-based; conditions: L02, 72 h
Bel7402/5-FU [8] = experiment: Effect on iNOS expression in human Bel7402/5-FU cells assessed as ratio of iNOS to beta-actin level at 0.05 uM after 48 hrs by Western blot analysis (reference value: 0.13); type: functional
Bel7402/5-FU [9] = experiment: Effect on COX2 expression in human Bel7402/5-FU cells assessed as ratio of COX2 to beta-actin level at 0.05 uM after 48 hrs by Western blot analysis (reference value: 0.36); type: functional
Bel7402/5-FU [10] = experiment: Induction of apoptosis in human Bel7402/5-FU cells assessed as necrotic cells at 0.05 uM after 48 hrs by Annexin V-APC/7-AAD staining based flow cytometry (reference value: 0.58%); type: functional
[11] = target: Mitogen-activated protein kinase; ERK1/ERK2 (Homo sapiens) (UniProt P27361+P28482); experiment: Effect on ERK1/2 phosphorylation in human Bel7402/5-FU cells assessed as ratio of phosphorylated ERK1/2 to beta-actin level at 0.05 uM after 48 hrs by Western blot analysis (reference value: 0.59); type: cell-based
Bel7402/5-FU [12] = experiment: Induction of apoptosis in human Bel7402/5-FU cells assessed as live cells at 0.05 uM after 48 hrs by Annexin V-APC/7-AAD staining based flow cytometry (reference value: 91.08%); type: functional
Bel7402/5-FU [13] = experiment: Induction of apoptosis in human Bel7402/5-FU cells assessed as ratio of cleaved caspase-8 to beta-actin level at 0.05 uM after 48 hrs by Western blot analysis (reference value: 0.17); type: functional
Bel-7402 = experiment: Antiproliferative activity against human Bel7402 cells after 72 hrs by CCK-8 assay; type: functional, cell-based; conditions: Bel-7402, 72 h
[14] = target: Signal transducer and activator of transcription 3 (Homo sapiens) (UniProt P40763); experiment: Effect on STAT3 phosphorylation in human Bel7402/5-FU cells assessed as ratio of phosphorylated STAT3 to beta-actin level at 0.05 uM after 48 hrs by Western blot analysis (reference value: 0.3); type: cell-based
Bel7402/5-FU [15] = experiment: Induction of apoptosis in human Bel7402/5-FU cells assessed as late apoptotic cells at 0.05 uM after 48 hrs by Annexin V-APC/7-AAD staining based flow cytometry (reference value: 3%); type: functional
Bel7402/5-FU [16] = experiment: Effect on cyclinA expression in human Bel7402/5-FU cells assessed as ratio of cyclinA to beta-actin level at 0.05 uM after 48 hrs by Western blot analysis (reference value: 0.39); type: functional
[17] = target: RAC-alpha serine/threonine-protein kinase (Homo sapiens) (UniProt P31749); experiment: Effect on AKT phosphorylation in human Bel7402/5-FU cells assessed as ratio of phosphorylated AKT to beta-actin level at 0.05 uM after 48 hrs by Western blot analysis (reference value: 0.39); type: cell-based
Bel7402/5-FU [18] = experiment: Induction of apoptosis in human Bel7402/5-FU cells assessed as ratio of cleaved PARP to beta-actin level at 0.05 uM after 48 hrs by Western blot analysis (reference value: 0.2); type: functional
Bel7402/5-FU [19] = experiment: Effect on COX1 expression in human Bel7402/5-FU cells assessed as ratio of COX1 to beta-actin level at 0.05 uM after 48 hrs by Western blot analysis (reference value: 0.48); type: functional
Bel7402/5-FU [20] = experiment: Induction of apoptosis in human Bel7402/5-FU cells assessed as reduction in cell number at 0.05 uM after 24 hrs by Hoechst 33342 staining based fluorescent microscopic method; type: functional
Bel7402/5-FU [21] = experiment: Induction of microtubule disruption in human Bel7402/5-FU cells at 0.05 uM after 24 to 48 hrs by DAPI staining based immunofluorescence microscopic method; type: functional, cell-based
Bel7402/5-FU [22] = experiment: Effect on P-gp expression in human Bel7402/5-FU cells assessed as ratio of P-gp to beta-actin level at 0.05 uM after 48 hrs by Western blot analysis (reference value: 0.59); type: functional
Bel7402/5-FU [23] = experiment: Antiproliferative activity against human Bel7402/5-FU cells after 72 hrs by CCK-8 assay; type: functional, cell-based
[24] = Resistant factor, ratio of IC50 for human Bel7402/5-FU cells to IC50 for human Bel7402 cells; type: functional
Bel7402/5-FU [25] = experiment: Effect on MRP1 expression in human Bel7402/5-FU cells assessed as ratio of MRP1 to beta-actin level at 0.05 uM after 48 hrs by Western blot analysis (reference value: 0.58); type: functional
Bel7402/5-FU [26] = experiment: Effect on cyclinB1 expression in human Bel7402/5-FU cells assessed as ratio of cyclinB1 to beta-actin level at 0.05 uM after 48 hrs by Western blot analysis (reference value: 0.53); type: functional
Bel7402/5-FU [27] = experiment: Effect on CDK2 expression in human Bel7402/5-FU cells assessed as ratio of CDK2 to beta-actin level at 0.05 uM after 48 hrs by Western blot analysis (reference value: 0.43); type: functional
Bel7402/5-FU [28] = experiment: Reduction in microtubule density in human Bel7402/5-FU cells at 0.05 uM after 24 to 48 hrs by DAPI staining based immunofluorescence microscopic method; type: functional, cell-based
Bel7402/5-FU [29] = experiment: Effect on MMP2 expression in human Bel7402/5-FU cells assessed as ratio of MMP2 to beta-actin level at 0.05 uM after 48 hrs by Western blot analysis (reference value: 0.3); type: functional
Bel7402/5-FU [30] = experiment: Cell cycle arrest in human Bel7402/5-FU cells assessed as accumulation at G2 phase at 0.05 uM after 48 hrs by propidium iodide staining based flow cytometry (reference value: 35.16%); type: functional
Bel7402/5-FU [31] = experiment: Antimigratory activity in human Bel7402/5-FU cells at 0.05 uM after 24 hrs by wound healing assay; type: functional, cell-based
Bel7402/5-FU [32] = experiment: Induction of apoptosis in human Bel7402/5-FU cells assessed as early apoptotic cells at 0.05 uM after 48 hrs by Annexin V-APC/7-AAD staining based flow cytometry (reference value: 5.24%); type: functional
Bel7402/5-FU [33] = experiment: Induction of apoptosis in human Bel7402/5-FU cells assessed as ratio of cleaved caspase-3 to beta-actin level at 0.05 uM after 48 hrs by Western blot analysis (reference value: 0.19); type: functional
Bel7402/5-FU [34] = experiment: Induction of apoptosis in human Bel7402/5-FU cells assessed as ratio of cleaved caspase-9 to beta-actin level at 0.05 uM after 48 hrs by Western blot analysis (reference value: 0.17); type: functional
Bel7402/5-FU [35] = experiment: Effect on VEGFR2 expression in human Bel7402/5-FU cells assessed as ratio of VEGFR2 to beta-actin level at 0.05 uM after 48 hrs by Western blot analysis (reference value: 0.25); type: functional

Chain of Mitogen-activated protein kinase; ERK1/ERK2 (Homo sapiens) (P27361 whole entry, looked up): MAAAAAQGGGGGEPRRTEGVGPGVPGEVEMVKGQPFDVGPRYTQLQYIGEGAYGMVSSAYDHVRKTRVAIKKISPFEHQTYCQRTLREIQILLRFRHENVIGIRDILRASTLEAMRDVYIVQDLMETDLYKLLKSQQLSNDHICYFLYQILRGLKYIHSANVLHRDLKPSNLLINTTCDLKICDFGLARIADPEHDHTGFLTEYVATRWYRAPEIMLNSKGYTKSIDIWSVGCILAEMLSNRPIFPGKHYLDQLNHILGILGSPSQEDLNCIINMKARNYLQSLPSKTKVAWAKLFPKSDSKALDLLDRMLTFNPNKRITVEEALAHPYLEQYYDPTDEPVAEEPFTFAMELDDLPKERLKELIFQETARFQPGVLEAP
Chain of Mitogen-activated protein kinase; ERK1/ERK2 (Homo sapiens) (P28482 whole entry, looked up): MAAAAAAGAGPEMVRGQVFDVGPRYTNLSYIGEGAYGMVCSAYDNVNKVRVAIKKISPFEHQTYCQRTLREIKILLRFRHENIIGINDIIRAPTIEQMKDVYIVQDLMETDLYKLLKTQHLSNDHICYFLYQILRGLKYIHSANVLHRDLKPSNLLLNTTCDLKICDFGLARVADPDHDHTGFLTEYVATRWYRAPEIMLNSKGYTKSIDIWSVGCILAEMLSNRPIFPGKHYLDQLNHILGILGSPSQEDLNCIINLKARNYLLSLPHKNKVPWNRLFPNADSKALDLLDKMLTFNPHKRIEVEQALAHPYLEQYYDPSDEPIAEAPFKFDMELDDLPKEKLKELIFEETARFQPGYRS
Chain of RAC-alpha serine/threonine-protein kinase (Homo sapiens) (P31749 whole entry): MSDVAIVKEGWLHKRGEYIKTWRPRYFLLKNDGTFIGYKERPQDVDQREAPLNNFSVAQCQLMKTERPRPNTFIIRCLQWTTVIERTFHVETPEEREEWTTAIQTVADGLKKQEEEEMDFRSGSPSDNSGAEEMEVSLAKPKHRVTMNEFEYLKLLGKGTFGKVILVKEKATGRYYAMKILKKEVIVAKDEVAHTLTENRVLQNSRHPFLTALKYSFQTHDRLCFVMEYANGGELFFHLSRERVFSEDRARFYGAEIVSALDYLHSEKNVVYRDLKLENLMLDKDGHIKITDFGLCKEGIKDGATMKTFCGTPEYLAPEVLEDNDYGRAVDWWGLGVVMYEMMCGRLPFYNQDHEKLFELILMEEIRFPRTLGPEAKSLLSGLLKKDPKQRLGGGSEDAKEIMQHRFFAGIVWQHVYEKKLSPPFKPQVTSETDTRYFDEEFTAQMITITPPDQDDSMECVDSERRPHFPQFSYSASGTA
Chain of Signal transducer and activator of transcription 3 (Homo sapiens) (P40763 whole entry): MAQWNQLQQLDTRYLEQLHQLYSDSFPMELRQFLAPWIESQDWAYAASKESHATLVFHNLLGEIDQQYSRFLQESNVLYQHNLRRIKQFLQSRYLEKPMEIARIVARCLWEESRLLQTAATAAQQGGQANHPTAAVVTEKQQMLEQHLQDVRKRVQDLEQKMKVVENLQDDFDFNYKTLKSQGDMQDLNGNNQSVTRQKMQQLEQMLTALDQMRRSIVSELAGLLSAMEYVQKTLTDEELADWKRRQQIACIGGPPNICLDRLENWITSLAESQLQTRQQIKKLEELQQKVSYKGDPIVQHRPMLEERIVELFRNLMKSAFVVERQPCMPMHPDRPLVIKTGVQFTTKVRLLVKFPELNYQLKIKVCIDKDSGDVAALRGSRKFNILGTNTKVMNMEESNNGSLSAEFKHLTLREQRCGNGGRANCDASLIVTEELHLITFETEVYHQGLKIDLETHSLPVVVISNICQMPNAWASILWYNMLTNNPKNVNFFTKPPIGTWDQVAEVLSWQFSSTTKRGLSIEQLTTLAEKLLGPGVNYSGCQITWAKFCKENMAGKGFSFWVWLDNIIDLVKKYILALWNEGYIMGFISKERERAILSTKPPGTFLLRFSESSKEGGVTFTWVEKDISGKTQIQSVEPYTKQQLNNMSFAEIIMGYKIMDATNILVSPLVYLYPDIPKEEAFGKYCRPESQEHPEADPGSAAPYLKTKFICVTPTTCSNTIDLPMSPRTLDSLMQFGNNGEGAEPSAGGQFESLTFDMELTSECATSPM

Structure (SMILES): COc1cc([C@@H]2c3cc4c(cc3[C@H](O)[C@H]3COC(=O)[C@H]23)OCO4)cc(OC)c1OC [PODOFILOX]
- Ratio (Bel7402/5-FU [1]): 0.33
- Activity (Bel7402/5-FU [2]): Active
- Activity (Bel7402/5-FU [3]): 17.28%
- Activity (Bel7402/5-FU [4]): 9.1%
- Activity (Bel7402/5-FU [5]): Active
- Ratio (Bel7402/5-FU [6]): 0.28
- Activity (Bel7402/5-FU [7]): Active
- IC50 (L02): 22 nM
- Ratio (Bel7402/5-FU [8]): 0.18
- Ratio (Bel7402/5-FU [9]): 0.39
- Activity (Bel7402/5-FU [10]): 4.65%
- Ratio [11]: 0.38
- Activity (Bel7402/5-FU [12]): 63.7%
- Ratio (Bel7402/5-FU [13]): 0.26
- IC50 (Bel-7402): 52 nM
- Ratio [14]: 0.41
- Activity (Bel7402/5-FU [15]): 23.17%
- Ratio (Bel7402/5-FU [16]): 0.27
- Ratio [17]: 0.35
- Ratio (Bel7402/5-FU [18]): 0.38
- Ratio (Bel7402/5-FU [19]): 0.43
- Activity (Bel7402/5-FU [20]): Active
- Activity (Bel7402/5-FU [21]): Active
- Ratio (Bel7402/5-FU [22]): 0.49
- IC50 (Bel7402/5-FU [23]): 44 nM
- Ratio IC50 [24]: 0.84
- Ratio (Bel7402/5-FU [25]): 0.52
- Ratio (Bel7402/5-FU [26]): 0.41
- Ratio (Bel7402/5-FU [27]): 0.29
- Activity (Bel7402/5-FU [28]): Active
- Ratio (Bel7402/5-FU [29]): 0.13
- Activity (Bel7402/5-FU [30]): 73.62%
- Activity (Bel7402/5-FU [31]): Active
- Activity (Bel7402/5-FU [32]): 8.48%
- Ratio (Bel7402/5-FU [33]): 0.27
- Ratio (Bel7402/5-FU [34]): 0.26
- Ratio (Bel7402/5-FU [35]): 0.22
